Data taken from US20200277268A1, “PENTAFLUOROPHENYL SULFONAMIDE COMPOUNDS, COMPOSITIONS AND USES THEREOF” (DALRIADA THERAPEUTICS INC., priority 2017, published 2020).
Entries after “also recorded” stand apart in the source; their conditions may differ.

What was measured:
U87MG = test: Cell viability, glioblastoma U87MG; assay type: cell-based; conditions: Homo sapiens, U-87 MG; glioblastoma cell line
Protocol: (§1) The anti-cancer efficacy of exemplary compounds of the application were assessed in vitro against different cancer cell lines. […] 1×10^4 cells/well were plated in 96-well assay plates in culture medium. […] In some instances, FBS was removed for periods ranging from 16-24 hours, and re-introduced with test compound addition. After 24 hrs, test compounds and vehicle controls were added to appropriate wells such that the final volume was 100 μl in each well. The cells were cultured for the desired test exposure period (72 hours) at 37° C. and 5% CO2. The assay plates were removed from […] incubator and 20 μl/well of CellTiter-Blue® Reagent was added. The plates were incubated using standard cell culture conditions for 1-4 hours. Afterwards, the plates were shaken for 10 seconds and florescence was recorded at 560/590 nm using a Cytation 3 spectrophotometer. IC50 values were determined using non-linear regression analysis with GraphPad Prism 6.0 (GraphPad Software Inc.).

hERG channel = hERG channel (Homo sapiens, UniProt Q12809); test: cell-based
Chain of hERG channel (Q12809 whole entry): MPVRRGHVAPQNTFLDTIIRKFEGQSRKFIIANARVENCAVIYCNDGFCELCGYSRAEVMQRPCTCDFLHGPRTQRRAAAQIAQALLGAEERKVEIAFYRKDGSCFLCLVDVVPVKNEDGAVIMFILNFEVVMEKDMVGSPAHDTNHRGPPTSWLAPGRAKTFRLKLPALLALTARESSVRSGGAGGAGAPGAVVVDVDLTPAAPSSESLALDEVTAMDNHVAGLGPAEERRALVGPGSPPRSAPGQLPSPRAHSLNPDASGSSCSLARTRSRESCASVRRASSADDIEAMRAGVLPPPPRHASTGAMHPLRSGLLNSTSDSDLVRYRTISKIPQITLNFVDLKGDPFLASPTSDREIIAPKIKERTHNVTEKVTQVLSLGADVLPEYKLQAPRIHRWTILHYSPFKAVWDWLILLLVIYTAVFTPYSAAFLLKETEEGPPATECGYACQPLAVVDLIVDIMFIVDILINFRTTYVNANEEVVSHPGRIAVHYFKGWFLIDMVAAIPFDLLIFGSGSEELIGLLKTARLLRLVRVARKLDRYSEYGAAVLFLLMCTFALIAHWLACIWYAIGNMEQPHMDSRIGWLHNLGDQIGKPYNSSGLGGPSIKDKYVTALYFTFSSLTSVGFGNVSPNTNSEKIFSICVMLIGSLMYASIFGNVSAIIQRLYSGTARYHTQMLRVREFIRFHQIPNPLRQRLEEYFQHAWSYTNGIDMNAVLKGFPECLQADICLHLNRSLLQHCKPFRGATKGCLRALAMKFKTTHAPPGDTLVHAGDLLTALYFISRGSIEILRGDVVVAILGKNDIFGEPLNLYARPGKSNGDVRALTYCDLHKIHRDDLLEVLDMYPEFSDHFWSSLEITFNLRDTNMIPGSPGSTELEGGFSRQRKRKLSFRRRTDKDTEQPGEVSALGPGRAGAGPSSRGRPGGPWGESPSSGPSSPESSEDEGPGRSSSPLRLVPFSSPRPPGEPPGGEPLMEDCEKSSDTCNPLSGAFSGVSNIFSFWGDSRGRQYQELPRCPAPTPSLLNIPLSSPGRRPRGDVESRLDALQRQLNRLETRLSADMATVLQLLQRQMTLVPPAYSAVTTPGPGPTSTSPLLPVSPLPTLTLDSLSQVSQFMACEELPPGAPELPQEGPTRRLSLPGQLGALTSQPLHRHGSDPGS

MOLM14 = test: Cell viability, AML MOLM14; assay type: cell-based; conditions: Homo sapiens, MOLM-14, Table 4
Protocol: (§2) The anti-cancer efficacy of exemplary compounds of the application were assessed in vitro against different cancer cell lines. Cell viability was examined following treatment at various concentrations of inhibitor (0.097656-50 μM) using a CellTiter-Blue® cell viability assay. 1×10^4 cells/well were plated in 96-well assay plates in culture medium. All cells were grown in DMEM, IMDM and RPMI-1640 supplemented with 10% fetal bovine serum (FBS). In some instances, FBS was removed for periods ranging from 16-24 hours, and re-introduced with test compound addition. After 24 hrs, test compounds and vehicle controls were added to appropriate wells such that the final volume was 100 μl in each well. The cells were cultured for the desired test exposure period (72 hours) at 37° C. and 5% CO2. The assay plates were removed from […] incubator and 20 μl/well of CellTiter-Blue® Reagent was added. The plates were incubated using standard cell culture conditions for 1-4 hours. Afterwards, the plates were shaken for 10 seconds and florescence was recorded at 560/590 nm using a Cytation 3 spectrophotometer. IC50 values were determined using non-linear regression analysis with GraphPad Prism 6.0 (GraphPad Software Inc.). […]

OCI-AML3 = test: Cell viability, AML OCI-AML3; assay type: cell-based; conditions: Homo sapiens, OCI-AML-3, Table 4
Protocol: as §2

[1] = system: healthy keratinocyte cells (HaCaT); test: CellTiter-Blue cell viability, HaCaT; assay type: cell-based; conditions: Homo sapiens, non-cancerous, 72 hours
Protocol: (§3) The anti-cancer efficacy of exemplary compounds of the application were assessed in vitro against different cancer cell lines. Cell viability was examined following treatment at various concentrations of inhibitor (0.097656-50 μM) using a CellTiter-Blue® cell viability assay. 1×10^4 cells/well were plated in 96-well assay plates in culture medium. All cells were grown in DMEM, IMDM and RPMI-1640 supplemented with 10% fetal bovine serum (FBS). In some instances, FBS was removed for periods ranging from 16-24 hours, and re-introduced with test compound addition. After 24 hrs, test compounds and vehicle controls were added to appropriate wells such that the final volume was 100 μl in each well. The cells were cultured for the desired test exposure period (72 hours) at 37° C. and 5% CO2. The assay plates were removed from 3° C. incubator and 20 μl/well of CellTiter-Blue® Reagent was added. The plates were incubated using standard cell culture conditions for 1-4 hours. Afterwards, the plates were shaken for 10 seconds and florescence was recorded at 560/590 nm using a Cytation 3 spectrophotometer. IC50 values were determined using non-linear regression analysis with GraphPad Prism 6.0 (GraphPad Software Inc.).

UBA5 = target: T1, UBA5 (Homo sapiens, UniProt Q9GZZ9); test: 19F NMR study of covalent modification of UBA5; assay type: binding; conditions: 100 μM compound, 100 μM UBA5, 2 hours at 37° C.
T1 construct: Constructs of full length human UBA5 (1-404) were cloned into a pET28b(+) vector; His-SUMO (N, cleaved yes); made in house; host or cells: E. coli BL21 (DE3) RILP
T1 sequence (Q9GZZ9 whole entry): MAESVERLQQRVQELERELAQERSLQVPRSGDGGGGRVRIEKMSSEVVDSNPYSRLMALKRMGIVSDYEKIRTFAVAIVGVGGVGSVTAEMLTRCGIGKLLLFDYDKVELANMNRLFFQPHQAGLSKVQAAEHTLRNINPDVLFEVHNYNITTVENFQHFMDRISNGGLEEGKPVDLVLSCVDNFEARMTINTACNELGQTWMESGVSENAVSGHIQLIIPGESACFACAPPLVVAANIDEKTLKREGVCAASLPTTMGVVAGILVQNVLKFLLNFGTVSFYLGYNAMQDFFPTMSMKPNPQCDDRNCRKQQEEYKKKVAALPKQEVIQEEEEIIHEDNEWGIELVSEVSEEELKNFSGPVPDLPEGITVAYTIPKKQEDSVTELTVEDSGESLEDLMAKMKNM
Protocol: Spectra were normalized and referenced according to the fluorine peak of 5-fluoro-Trp.
To assess potential reactivity of I-1 against Cys containing proteins, a series of ^19F NMR studies were conducted with BSA, lysozyme, STAT3, and STATS. […] All samples were prepared in 100 mM HEPES pH 7.4, and 100 μM 5-fluoro-Trp, with a final concentration of 10% D20 and 10% DMSO. The samples were incubated for 2 hours at 37° C. prior to data collection. All spectra were normalized and referenced according to the fluorine peak of 5-fluoro-Trp.
To evaluate covalent modification of UBA5 by I-1, ^19F NMR studies were conducted in accordance with the procedure described in Example 80.

[2] = system: UFMylation pathway (UBA5, UFC1, UFM1, c-Myc) in MV4-11 cells; test: Western blot of UFMylation pathway in MV4-11 cells; assay type: cell-based; conditions: 8 hours
Protocol: Post-treatment (8 hours) of MV4-11 cells with I-1 test compound at 1, 0.5, 0.25, 0.1 and 0 μM concentrations, all cells were lysed with radioimmunoprecipitation assay (RIPA) buffer: 20 mM Tris pH 7.4, 150 mM NaCl, 0.5% deoxycholate, 1% Triton X-100, 0.1% sodium dodecyl sulfate (SDS). Total protein was measured using BCA assay (Sigma). In each assay, clarified protein were resolved on a 4%-15% polyacrylamideSDS gel and transferred to a PVDF membrane (Bio-Rad). The membranes were blocked with 5% solution of skim milk powder in TBST and incubated for at least 1 hour followed by an overnight incubation at 4° C. in primary antibody (1:1000 dilution). Blots were probed with antibodies against UBA5, UFM1, UFC1, c-Myc, and beta-actin was used as a loading control (Santa Cruz Biotechnology catalog # sc-835). The PVDF membrane then washed with TBST (3 times for 5 minutes). A horseradish peroxides (HRP)-conjugated goat anti-mouse IgG secondary antibodies (Cell signaling Catalog #7076S) was applied to the membrane (1:5000 dilution) and incubated for 1 hour at room temperature. The blots were then rinsed again 3 times in TBST for 10 minutes. Bands were visualized using clarity western ECL substrate luminal/enhancer solution and peroxide solution 1:1 ratio for HRP secondary antibody, according to the manufacturer's instructions (Bio-Rad) and analyzed using Image lab software (Bio-Rad).

MV4-11 = test: CellTiter-Blue cell viability, MV4-11; assay type: cell-based; conditions: Homo sapiens, MV4-11
Protocol: as §3

U118MG = test: Cell viability, glioblastoma U118MG; assay type: cell-based; conditions: Homo sapiens, U-118-MG; glioblastoma cell line
Protocol: as §1

D425 = test: Cell viability, medulloblastoma D425; assay type: cell-based; conditions: medulloblastoma cell line
Protocol: as §2

O=S(=O)(c1c(F)c(F)c(F)c(F)c1F)N(Cc1ccc(F)cc1)C1CC1 [Compound I-1, N-cyclopropyl-2,3,4,5,6-pentafluoro-N-(4-fluorobenzyl)benzenesulfonamide] showed an IC50 (U87MG) of 2.87 µM, an IC50 (hERG channel) of 17.3 µM and an IC50 (MOLM14) of 1.7 to 2.5 µM. For the same compound, the IC50 (OCI-AML3) was 5.6 µM, the IC50 [1] was 12.5 µM and the “covalent modification of UBA5 (free fluoride detection)” value (UBA5) was “Fluoride was released; also recorded: covalently modifies UBA5”. The “concentration at which UFM1-UFC1 conjugate levels decrease” value [2] was no less than 250 nM, the “concentration at which c-Myc levels decrease” value [2] was no less than 250 nM and the “concentration giving complete wipe-out of UBA5 total protein” value [2] was “greater than 500 nM”. For the same compound, the “concentration giving reduction of UBA5 total protein levels” value [2] was 250 nM, the IC50 (MV4-11; AML cell line, 72 hours) was 0.47 µM and the IC50 (MV4-11; AML, Table 4) was 0.6 µM. For the same compound, the IC50 (U118MG) was 10.3 µM and the IC50 (D425) was 0.8 µM.
